In a melting point compilation (Tetko et al.; mined from patent text by program, amines drawn as free bases though some values may be those of a salt):

Row | Structure (SMILES) | melting point [°C]
1 | CC(OC(=O)OC1CCCCC1)OC(=O)C1(C(=O)OC(C)OC(=O)OC2CCCCC2)Oc2ccc(C[C@@H](C)NC[C@H](O)c3cccc(Cl)c3)cc2O1 (some centres not stated) | 78 to 81
2 | CC1CC2=CC(=O)CCC2C2C(O)CC3(C)C(O)CCC3C12 (configuration not stated) | 163
3 | CC(C)=Cc1ccc(-c2ccc(CCCI)cc2)cc1 | 58 to 61
4 | O=S(c1cn(-c2c(Cl)cc(C(F)(F)F)cc2Cl)c(Cl)n1)C(F)(F)F (configuration not stated) | 148
5 | C[C@H](N)Cn1ncc2ccc3oc(C(=O)NCC4(O)CC4)cc3c21 | 77 to 79
6 | Oc1cc2c(cc1CCCCc1ccccc1)OC(CCc1ccccc1)C2 (configuration not stated) | 50 to 53
7 | C/C(=C\c1ccc(C(=O)O)cc1)c1ccc2c(c1)C(C)(C)C=CC2(C)C | 234 to 236
8 | CN(C)c1ccc(C=O)c([N+](=O)[O-])c1 | 115 to 116
9 | CCOC(=O)Cc1ccc(NC(=O)C(Cc2ccccc2)NS(=O)(=O)c2ccc(Cl)cc2)cc1 (racemic) | 148 to 150
10 | C=Cc1cc(Cl)c(N)c(Cl)c1 | 63
11 | COc1c(F)c(N)cc(F)c1F | 45 to 47
12 | N#Cc1ccc(Oc2c(Cl)cc(Cl)cc2Cl)cc1Cl | 108 to 116
13 | O=C(O)CCCCCOC(=O)n1c(-c2cscn2)nc2ccccc21 | 79 to 81
14 | O=C(Nc1ccc(-n2nc(C(F)(F)F)cc2C(F)(F)F)cc1)C1(O)CC1 | 198 to 200
15 | CNc1cc(NS(=O)(=O)c2ccccc2)ccc1[N+](=O)[O-] | 172 to 174
16 | Clc1ccc2nc(CN3CCN(c4ccccc4Cl)CC3)cn2c1 | 123 to 124
17 | O=C(O)CCCCCCC(=O)c1cccnc1 | 113 to 115
18 | CCOC(=O)c1c(CC(C)C)nc2c(C(F)(F)F)cccc2c1O | 100
19 | CN(C)CCCOc1ccc(-c2nn(CC(=O)OCc3ccccc3)c3ncccc23)cc1 | 90 to 92
20 | COC(=O)C(C)(C)CC(=O)c1ccc(-n2ccnc2)cc1 | 89 to 93

Row | Structure (SMILES) | melting point [°C]
21 | O=C(CN1C(=O)c2ccccc2C1=O)c1ccc(F)cc1 | 140 to 144
22 | COc1ccc(CCc2cc(OC)c(OC)cc2C)cc1OC | 102
23 | CSc1ccc(N2CCOCC2)c(NC(=N)C(C)C)c1 | 155
24 | COc1cccc2c1C13CCN(C(=O)OCC(Cl)(Cl)Cl)C(C2)C1(C(=O)OCC(Cl)(Cl)Cl)CCC(=O)C3 (configuration not stated) | 115 to 116
25 | CCCN1C[C@H]2CCc3cccc(O)c3[C@H]2C1 (relative stereo) | 180 to 184
26 | COC(=O)CCCNS(=O)(=O)c1ccc2ccccc2c1 | 123 to 125
27 | Cc1ccc(Sc2nc(-c3ccc(Cl)cc3)c(CCC(=O)O)o2)cc1 | 160 to 161
28 | CN(O)C(=O)c1ccccc1 | < 20
29 | Cc1nc2ccc3c(c2s1)C(=CC#N)CC3 | 194 to 195
30 | CCN1C(=O)SC(=Cc2ccc([N+](=O)[O-])cc2)C1=O | 217 to 218
31 | COC(=O)c1cc(Oc2c(Cl)cc(C(F)(F)F)cc2Cl)n[nH]1 | 114 to 116
32 | COC(=O)C(C)Oc1ccc(NC(=O)OCCO)cc1 (configuration not stated) | 90.5 to 92.8
33 | COc1ccc(S(=O)(=O)NC(C)c2cc(F)ccc2-c2ccc(F)cc2F)c(OC)c1 (configuration not stated) | 192 to 194
34 | COc1cccc(CC(c2ccccc2)N(CCO)CCO)c1 (configuration not stated) | 67 to 69
35 | CCCCCCCCCC(O)CNCCNCC(O)CCCCCCCCC (configuration not stated) | 130 to 138
36 | O=C(O)CCc1[nH]c2cc(Cl)cc(Cl)c2c1Br | 228
37 | O=C(O)CCN1CCN(Cc2ccccc2)CC1 | 165 to 166
38 | CN(C)[C@@H]1Cc2c(O)cccc2C[C@H]1O (relative stereo) | 179 to 183
39 | COC(=O)C=Cc1cc(F)ccc1C(=O)O | 151 to 153
40 | N#Cc1c(Cl)nc2ccccc2c1Cl | 157

Row | Structure (SMILES) | melting point [°C]
41 | FC(F)(F)c1ccc(-c2cc(Oc3ccc4cccnc4c3)ncn2)c(Br)c1 | 185 to 187
42 | O=C(O)c1ccc(F)cc1NS(=O)(=O)c1ccccc1 | 158 to 159
43 | CCCCCCNC(=O)c1ccc(N2N=C(CCC)C(=CNc3ccccc3CC)C2=O)cc1 | 46.7
44 | N#CCSc1ncc2ccccn12 | 120 to 122
45 | CC(C)(C)OC(=O)N1CC=C(c2ccc(NCc3ccccc3)cc2)CC1 | 120 to 121
46 | CCCCCCCCCC(=O)Oc1ccc(N(CC(=O)O)CC(=O)O)cc1OC(=O)CCCCCCCCC | 131 to 133
47 | COC(=O)c1sc2cc([N+](=O)[O-])ccc2c1N | 169 to 170
48 | NS(=O)(=O)c1cccc(-c2noc(-c3cnn4c(C(F)(F)F)cc(-c5ccc(C(F)(F)F)c(OCC(F)(F)F)c5)nc34)n2)c1 | 250
49 | CSC(=NS(=O)(=O)c1ccccc1-c1ccccc1)SC | 115 to 117
50 | CC(C)(C)c1cc(C(c2ccccc2)N2CCCCC2)c(O)c(C(C)(C)C)c1 (configuration not stated) | 140 to 141
51 | CS(=O)(=O)c1ccc(C#CCF)cc1 | 97 to 99
52 | C=C(OCC)c1cc(C(=O)OC)c(NC(C)=O)cc1C(F)(F)F | 65 to 73
53 | CC(CC(=O)O)c1ccc(-c2ccc(F)cc2F)cc1 (configuration not stated) | 109 to 110
54 | CSC(C(=O)O)c1cc(=O)oc2cc(O)c(O)cc12 (configuration not stated) | 254 to 256
55 | O=C(Nc1cccc(NC(=O)C(F)(F)F)c1)Nc1ccc(Cl)c(Cl)c1 | 221 to 223
56 | CN(C)C=Cc1ccncc1C#N | 80 to 83
57 | COc1ccc(C(=O)N2CCC[C@H]2C(OC)OC)cc1 | 51 to 52.5
58 | c1csc(-c2cn([C@H]3CN4CCC3CC4)nn2)c1 | 137
59 | CCOC(=O)C(C(=O)Nc1cc(OC)c(OC)c(OC)c1)(c1ccccc1)c1ccccc1 | 109 to 111
60 | CC1=CCC2C(=O)N(c3ccccc3)C(=O)C2C1 (configuration not stated) | 92 to 93

Results, then the molecule that gave them:

Row | melting point [°C] | Structure (SMILES)
61 | 92 to 95 | CCOC(=O)c1ccc(OCc2ccc(C3CCN(C(=O)OC(C)(C)C)CC3)cn2)cc1F
62 | 195 to 197 | O=C1N(Cc2cnc(N3CCCCC3)s2)c2ccccc2C12COc1cc3c(cc12)OCO3 (configuration not stated)
63 | 145 to 148 | CCOC(=O)c1cnc2ccc(CC)nc2c1Nc1ccc(OC)cc1
64 | 158 to 159 | CC(C)CC1(CCCCN2CCN(c3ccccn3)CC2)C(=O)Nc2ccccc21 (configuration not stated)
65 | 261 to 263 | COc1cc(C(=O)Nc2nnn[nH]2)nc(-c2ccc(N(C)C)cc2)c1
66 | 181 | CCCCc1c(C(=O)c2ccc(O)cc2)[nH]c2ccc([N+](=O)[O-])cc12
67 | 115 to 117 | CN1CCC(c2c[nH]c3ccc(NC(=N)c4cccs4)cc23)C(F)C1 (configuration not stated)
68 | 213 to 214 | CC1(c2ccccc2)C(=O)Nc2cc(Cl)c(Cl)cc2C1=O (configuration not stated)
69 | 102 to 110 | CN1C(=O)C(c2ccc(OC(F)(F)F)c(F)c2)(c2ccc(F)c(-c3cncnc3)c2)N=C1N (configuration not stated)
70 | 108 to 111 | O=C1C=C(c2ccc(Cl)c(S(=O)(=O)N3CCCC3)c2)OC1
71 | 155 to 157 | COCCONC(=O)c1nc(-c2ccc(Cl)c(OC)c2F)cc(N)c1Cl
72 | 152 to 153 | Nc1nc2ccc(CCN3CCC(Cc4ccccc4)CC3)cc2s1
73 | 152 | COc1c(C)cc(-c2cc(-c3ccc(S(C)(=O)=O)cc3)c(N3CCOCC3)s2)nc1C
74 | 88 to 91 | CN1CC(CCCl)c2nc3ccccc3n2C1=O (configuration not stated)
75 | 95.2 to 96.3 | CC(C)(C)OC(=O)NCCCc1ccc2c(n1)NCCC2
76 | 255 to 260 | Cc1ccc(C)n1Nc1nnc(N2CCOCC2)c2ccccc12
77 | > 300 | CNc1nc(NS(=O)(=O)c2ccc(N)cc2)cc(N(C)C)n1
78 | 176 to 178 | O=C1C(=Cc2ccc(Br)cc2)CCc2cc(OCCc3c[nH]cn3)ccc21
79 | 87 to 88 | CCN1CCN(c2cc(-c3ccccc3)c3ccccc3n2)CC1
80 | 158 to 160 | CC(C)(CNc1ccnc2cc(Cl)ccc12)NCc1ccc(Cl)c(C(F)(F)F)c1
81 | 72 | CCc1nn(CCO)c(CC)c1Oc1cc(C#N)cc(SC)c1

Row | melting point [°C] | Structure (SMILES)
82 | 186 to 188 | CCOC(=O)C1CNc2c(OC)cc(Cc3cnc(N)nc3N)c(OC)c2C1 (configuration not stated)
83 | 123 to 125 | COc1cc2oc(=O)c(CCN3CCN(c4ccccc4OC)CC3)c(C)c2cc1OC(C)C
84 | 178 to 183 | CNC(=O)c1ccccc1Nc1nc(Nc2ccc3c(c2)CCN(CCOC)CC3)ncc1Cl
85 | 196 | CCOc1ccc(F)cc1C(=O)c1sc2ncc(C#N)cc2c1N
86 | 116 | COc1cc(F)c(C(=O)Cc2c(Cl)cncc2Cl)cc1OC1CCCC1
87 | 286 to 293 | CCCn1cc2c(C3C(=O)Nc4ccc(Br)cc43)nc(NCC3CCCN3)nc2n1 (configuration not stated)
88 | 118 to 120 | FC(F)(F)c1ccn(-c2cc(N3CCOCC3)nc3ccccc23)n1
89 | 131 to 132 | CCC12CCC3c4ccc(OC)cc4CCC3C1CCC2OCCO (configuration not stated)
90 | 139 to 140 | Cc1cc(-c2nnnn2C2CC2)ccc1N
91 | 227 to 228 | COc1cc(-c2cnc3[nH]cc(C(=O)C(=O)N(C)C)c3n2)cc(OC)c1OC
92 | 97 to 98 | CCOC(=O)c1ccc2cccc(N)c2c1
93 | 61 to 63 | Cc1cc2c(cc1N1CCCCC1)OC(=O)C2C (configuration not stated)
94 | 210 to 211 | Cn1cc(Cc2cc3cccc(-c4cccc(C(=O)NCCO)c4)c3s2)cc(Cl)c1=O
95 | 185 to 198 | CN(C)CC(=O)OCC1CC(c2ccc(-c3ccc(N4C[C@H](Cn5ccnn5)OC4=O)cc3F)cn2)=NO1 (some centres not stated)
96 | 260 | CCCOc1ccccc1NC=C1C(=O)N(c2ccc(C(=O)O)cc2)N=C1C
97 | 175 | O=Cc1ccc(C=CC(=O)N2CCc3c([nH]c4ccccc34)C2c2ccc3c(c2)CCO3)cc1 (configuration not stated)
98 | 139 to 141 | O=C1Nc2ccccc2CCC1NC(CCc1ccccc1)C(=O)OCc1ccccc1 (configuration not stated)
99 | > 300 | O=C(NCCCN1CCCCC1)c1cccc(Nc2ncnc3[nH]cc(C(=O)c4ccccc4)c23)c1
100 | > 330 | CC(=O)Nc1nc2cc3[nH]c(-c4ccncc4)nc3cc2[nH]1
101 | 145 to 147 | CCCCCN1C(=O)C(NC(=O)OC(C)(C)C)c2ccccc21 (configuration not stated)
102 | 151 to 152 | CCOC(=O)c1cnc2c(S)cccn2c1=O
